Data taken from patent US8530455B2 (University of Medicine and Dentistry of New Jersey, priority 2009, dated 2013).

Columns and labels:
[1] = system: human citrated whole blood (CWB); assay: Whole blood clotting time after recalcification (Amelung KC4A Micro, or instrument not named); format: cell-based
Procedure: Clotting time of whole blood enables the contribution of both the cellular elements (leukocytes, red blood cells, platelets) and plasma (the liquid sustaining the cellular components) to be evaluated. The citrate anticoagulated sample is brought to 37° (body temperature) and calcium ion is added to initiate the coagulation cascade. Many instruments are available to determine the time between calcium addition and the formation of the blood clot (clotting time). The time for this complex phenomenon to occur can be shorter than normal (hypercoagulable), within the normal range, and longer than normal (hypocoagulable state). Some disease states are characterized by hypercoagulable clotting states and include coronary artery disease, some cancer, diabetes, multiple sclerosis, stroke etc. The hypocoagulable states include hemophilia, and patients receiving anticoagulant therapies.
(§1) Human citrated whole blood (CWB) samples were gently inverted several times to ensure homogeneity and stored on ice to prevent protein denaturation. Ten microliters of physiologic saline was added to 490 μl of CWB (control), gently mixed, and incubated at 37° C. for 10 minutes. Coagulation was initiated by transferring 300 μl of blood sample to a cuvette containing 32 μl of 0.1 M CaCl2. After gently mixing the sample and ensuring no air bubble formations in the cuvette, the whole blood clotting times were recorded on an Amelung KC4A Micro Coagulation Analyzer (Sigma Diagnostics, St. Louis, Mo., USA), a device that uses the relative displacement of a magnetic bead due to fibrin formation to determine the clotting time. In addition, the Sonoclot Coagulation Analyzer (Sienco, Wheat Ridge, Colo., USA), a miniviscometer that is sensitive to fibrin polymer formation and fibrinolysis, was also employed to determine the whole blood clotting time. Both clinical instruments are FDA approved and used to evaluate blood coagulation processes at 37° C.
(§2) Clotting time values obtained within each study were evaluated by repeated measures analysis of variance (ANOVA) followed by Tukey-Kramer multiple comparison tests. All statistical analyses were assessed using two-sided paired Student t tests and significance was defined as p<0.05.

[2] = system: human citrated whole blood (CWB); assay: Whole blood clotting time, Sonoclot Coagulation Analyzer; format: cell-based
Procedure: as §1, §2
In the previous experiments, the whole blood clotting times were measured using the Amelung KC4A Micro, an instrument approved by the FDA to measure blood coagulation processes. Another FDA approved instrument used to measure blood coagulation and fibrinolysis is the Sonoclot Coagulation Analyzer.

[3] = system: red blood cells in anticoagulated human blood; assay: Erythrocyte Sedimentation Rate (ESR) in vitro; format: cell-based; details: for ESR value: n=13
Excerpt: When anticoagulated blood is allowed to remain undisturbed in a long thin tube, the erythrocytes (red blood cells) begin to settle. The rate these cells settle may be a biomarker of the immune system status of the donor's blood. Many chronic diseases and those which create increased morbidity and mortality show increases (larger distance of settling) in ESR than age-matched healthy individuals. The ESR can also monitor the effects of therapeutics or procedures on the patient.
The ESR is the distance red blood cells settle in anticoagulated blood in one hour (mm/hr). These test results are elevated in many diseases that affect the immune system (infections, arthritis, cancer, heart diseases).

citrated whole blood = assay: Glucose-accelerated clotting time (Diagnostica Stago ST4 and Sonoclot); format: cell-based, human; details: for Glucose-accelerated clotting time: after 24 hours
Procedure: Citrated whole blood samples were obtained from the University Hospital's clinical laboratory with prior IRB approval. Samples were treated with different concentrations of glucose (6.0 mM, 9.0 mM, and 12.0 mM) to determine if a dose-response relationship existed between the glucose concentration and clotting time. Clotting times were then recorded using a Diagnostica Stago ST4 Coagulation Analyzer. […] The samples were incubated for 10 minutes prior to the addition of glucose (12.0 mM). After 24 hours, clotting times were recorded using a Diagnostica Stago ST4 and Sonoclot Coagulation Analyzer (FIG. 2). Results and Discussion

plasma = assay: GDL dose response on plasma clotting time; format: biochemical; details: GDL dose response curve in plasma
[4] = no refrigeration required; cited from earlier work

O=C1O[C@H](CO)[C@@H](O)[C@H](O)[C@H]1O [GDL, glucono-delta-lactone]
Mean Clotting Times ([1]; 2 μg GDL per mL CWB, n=8, control 264.38 ± 24.17): 271.13 ± 24.83 s
mean clotting time ([1]; 2.90 μg GDL/mL CWB, n=4, saline 254.08±27.37): 246.55±28.32
mean clotting time ([1]; 23.00 μg GDL/mL CWB, n=4): 307.90±16.82
mean clotting time ([1]; 184.00 μg GDL/mL CWB, n=4): 387.33±52.36
mean clotting time ([1]; 1.48 mg GDL/mL CWB, n=4): 444.55±92.01
Mean Clotting Times ([1]; 11.8 mg GDL per mL CWB, n=16, control 252.25 ± 25.05): 618.31 ± 71.81 s
mean clotting time ([1]; 11.80 mg GDL/mL CWB, n=4): 687.37±51.23
Mean Clotting Times ([1]; 0.2% TF plus 11.8 mg GDL per mL CWB, n=16): 418.44 ± 80.46 s
Mean Clotting Times ([1]; 0.2 Unit LMWH (dalteparin sodium) plus 2 μg GDL per mL CWB, n=8): 456.15 ± 47.45 s
Mean Clotting Times ([1]; 0.2 Unit UFH plus 2 μg GDL per mL CWB, n=8): 572.51 ± 45.94 s
Mean Clotting Times ([1]; 0.3 Unit LMWH (enoxaparin sodium) plus 2.9 μg GDL per mL CWB, n=4): 240.73 ± 29.58 s
Mean Clotting Times ([1]; 0.3 Unit LMWH (enoxaparin sodium) plus 10 μg GDL per mL CWB, n=4): 294.50 ± 46.16 s
Mean Clotting Times ([1]; 0.3 Unit LMWH (enoxaparin sodium) plus 23 μg GDL per mL CWB, n=4): 336.28 ± 51.79 s
Mean Clotting Times ([1]; 0.3 Unit LMWH (enoxaparin sodium) plus 184 μg GDL per mL CWB, n=4): 381.23 ± 61.83 s
Mean Clotting Times ([1]; 0.3 Unit LMWH (enoxaparin sodium) plus 1.48 mg GDL per mL CWB, n=4): 442.45 ± 63.38 s
Mean Clotting Times ([1]; 0.3 Unit LMWH (enoxaparin sodium) plus 11.8 mg GDL per mL CWB, n=4): 542.88 ± 54.17 s
Mean Clotting Times ([1]; 0.3 Unit UFH plus 2.9 μg GDL per mL CWB, n=5): 415.10 ± 101.63 s
Mean Clotting Times ([1]; 0.3 Unit UFH plus 10 μg GDL per mL CWB, n=5): 498.94 ± 81.24 s
Mean Clotting Times ([1]; 0.3 Unit UFH plus 23 μg GDL per mL CWB, n=5): 675.34 ± 129.28 s
Mean Clotting Times ([1]; 0.3 Unit UFH plus 184 μg GDL per mL CWB, n=5): 825.96 ± 160.74 s
Mean Clotting Times ([1]; 0.3 Unit UFH plus 1.48 mg GDL per mL CWB, n=5): 926.44 ± 192.03 s
Mean Clotting Times ([1]; 0.3 Unit UFH plus 11.8 mg GDL per mL CWB, n=5): 1197.89 ± 114.32 s
mean clotting time ([1]; CWB + GDL, n=9 (GDL 3 mg/ml)): 270 s
mean clotting time ([1]; CWB + TF + GDL, n=9 (GDL 3 mg/ml)): 134 s
change of whole blood clotting time over GDL concentration range ([1]; GDL 0.016 mM-66.24 mM): increased about three fold
clotting time versus control ([1]; GDL 3 mg/ml incubated in blood with bacterial endotoxin): significantly (p≦0.05) increase the clotting time
mean clotting time ([1]; GDL 4 mg/ml, after four days in the refrigerator (4°), control 177±17): 342 ± 32 s
mean clotting time ([1]; GDL 4 mg/ml, day 1, n=10, control 250±16): 432 ± 16 s
clotting time ([1]; Study III: 60 ng/ml histamine, 3 mg/ml GDL, n=8): 305 ± 30 s
clotting time ([1]; Study III: 60 ng/ml histamine, 4 mg/ml GDL, n=8): 325 ± 53 s
clotting time ([1]; Study IV: 1 μg/ml histamine added first, 1 mg/ml GDL, n=8): 297 ± 113 s
clotting time ([1]; Study IV: 1 μg/ml histamine added first, 2 mg/ml GDL, n=8): 304 ± 121 s
clotting time ([1]; blood containing protease 35 μg/ml plus GDL 4 mg/ml): 154 ± 55 s
clotting time ([1]; blood exposed to tissue factor plus GDL 3 mg/ml, TF alone 101): 134 s
anticoagulant effect ([1]; concentrations greater than 184 μg GDL per mL of blood, n=4, p<0.05): potent anticoagulant
clotting time ([1]; trypsin-treated blood plus GDL 6 mg/ml, n=4): 83 ± 19 s
Mean Clotting Times ([2]; 11.8 mg GDL per mL CWB, n=16, control 262.63 ± 49.67): 631.75 ± 74.55 s
Mean Clotting Times ([2]; 0.2 Unit LMWH (dalteparin sodium) plus 11.8 mg GDL per mL CWB, n=16): 844.94 ± 77.99 s
Mean Clotting Times ([2]; 0.2 Unit UFH plus 11.8 mg GDL per mL CWB, n=16): 852.00 ± 80.72 s
ESR value ([3]; 0.1 mg/ml GDL, control 20±13): 18±14 mm/hr
ESR value ([3]; 3.0 mg/ml GDL): 16±12 mm/hr
ESR value ([3]; 6.0 mg/ml GDL): 15±12 mm/hr
ESR ([3]; GDL 1 mg/ml alone): 9.6 mm
Methylcellulose (MC)-accelerated ESR ([3]; MC 0.1% plus GDL 1 mg/ml, N=8, p<0.05): 34.6 mm
ESR ([3]; MC + GDL (MC 0.1 mg/ml, GDL 1 mg/ml)): 30.1 mm
effect of GDL on clotting time in the presence of excess glucose (FIG. 2) (citrated whole blood; GDL 3 mg/ml and 4 mg/ml, glucose 12.0 mM): prolonging clotting time even in the presence of excess glucose
Glucose-accelerated clotting time (citrated whole blood; glucose (12.0 mM) plus GDL 3 mg/ml): 243 ± 70 s
Glucose-accelerated clotting time (citrated whole blood; glucose (12.0 mM) plus GDL 4 mg/ml): 334 ± 107 s
anticoagulant effect in plasma (plasma): a similar anticoagulant effect was observed
stability at room temperature [4]: not susceptible to degradation at room temperatures

Protamine sulfate [PS, reference compound]
Mean Clotting Times ([1]; 2 μg PS per mL CWB, n=8): 294.26 ± 22.92 s
Mean Clotting Times ([1]; 0.2 Unit LMWH (dalteparin sodium) plus 2 μg PS per mL CWB, n=8): 433.96 ± 56.96 s
Mean Clotting Times ([1]; 0.2 Unit UFH plus 2 μg PS per mL CWB, n=8): 464.71 ± 42.83 s

NCCc1c[nH]cn1 [histamine, reference compound]
clotting time ([1]; Study III: 60 ng/ml histamine, 0 mg/ml GDL, n=8, control 264±38): 220 ± 39 s
clotting time ([1]; Study IV: 1 μg/ml histamine, 0 mg/ml GDL, n=8, control 306±108): 253 ± 136 s
clotting time ([1]; histamine 20 ng/ml, n=8, control 264±80): 257 ± 105 s
clotting time ([1]; histamine 40 ng/ml, n=8): 240 ± 42 s
clotting time ([1]; histamine 60 ng/ml, n=8): 235 ± 73 s
clotting time ([1]; histamine 20 μg/ml, 10 minutes at 37°, n=9, control 300±72): 252 ± 61 s
clotting time ([1]; histamine 40 μg/ml, 10 minutes at 37°, n=9): 230 ± 49 s
clotting time ([1]; histamine 60 μg/ml, 10 minutes at 37°, n=9): 205 ± 71 s

unfractionated heparin sodium [UFH, reference compound]
Mean Clotting Times ([1]; 0.2 Unit UFH per mL CWB, n=8): 648.54 ± 55.31 s
Mean Clotting Times ([1]; 0.3 Unit UFH per mL CWB, n=5, control 246.56 ± 36.06): 507.52 ± 85.26 s
Mean Clotting Times ([2]; 0.2 Unit UFH per mL CWB, n=16): 677.25 ± 55.33 s

trypsin [reference compound]
clotting time ([1]; trypsin-treated blood, control 356±47): 49 ± 14 s

B1: TF: Tissue Factor, the initiator of the extrinsic clotting cascade (protein, UniProt P13726 33-295, looked up)
Tissue factor: SGTTNTVAAYNLTWKSTNFKTILEWEPKPVNQVYTVQISTKSGDWKSKCFYTTDTECDLTDEIVKDVKQTYLARVFSYPAGNVESTGSAGEPLYENSPEFTPYLETNLGQPTIQSFEQVGTKVNVTVEDERTLVRRNNTFLSLRDVFGKDLIYTLYYWKSSSSGKKTAKTNTNEFLIDVDKGENYCFSVQAVIPSRTVNRKSTDSPVECMGQEKGEFREIFYIIGAVVFVVIILVIILAISLHKCRKAGVGQSWKENSPLNVS
Mean Clotting Times ([1]; 0.2% TF, n=16): 100.13 ± 23.10 s
